From US20150148411A1, “COMPOSITIONS AND METHODS FOR DIAGNOSIS AND THERAPY OF DISORDERS RELATED TO ALTERATIONS OF MYH9” (THE ROCKEFELLER UNIVERSITY, priority 2013, published 2015) come the findings set out here.

The test system of one data set is p53 activation. In words: p53/DNA damage response: p53 immunoblot of doxorubicin-treated primary keratinocytes. The conditions noted are these: for DDR-induced p53 activation (p53 immunoblot): doxorubicin-treated mouse keratinocytes, blebbistatin 4 μM, Y27632 10 μM, latrunculin 2 μM. The class given is cell-based, mouse. On the procedure:
(§1) Western Blot analysis:-Protein blotting was carried out using standard protocols. Briefly, total cell lysates were prepared using RIPA (20 mM Tris-HCl (pH 8.0), 150 mM NaCl 1 mM EDTA, 1mM EGTA, 1% Triton X-100, 0.5% Deoxycorate, 0.1% SDS, 25 mM β-glycerophosphate, 10 mM NaF, 1 mM Na3VO4) supplemented with protease inhibitors (Complete mini, Roche). Blots were blocked with 5% BSA in 1×TBS 0.1% Tween-20 (TBST) for 1 h and incubated with the primary antibody overnight at 4° C. (diluted in TBST according to the manufacturer's protocol). Primary antibodies were reactive to rabbit anti-Myh9 (1:500, HPA001644, Sigma); phosphorylated (P) Erk1/2 (1:1000, #9101, Cell Signaling), Erk1/2 (1:1000, #9102, Cell Signaling), mouse anti-p53 (1:500, #2524, Cell Signaling), mouse anti-p21(F5) (1:500; sc-6246, Santa Cruz), mouse anti-GAPDH (ab8245, 1:5000; Abcam), mouse anti-Chk2 (1:500, #611570, BD); rabbit anti-P-Chk1 (1:500, #12302P, Cell Signaling); mouse anti-Chk1 (1:1000, 2360S, Cell Signaling); rabbit anti-pSmad2 (Ser465/467) (1:1000, Cell Signaling) and mouse anti-Smad2/3 (610843, 1/500; BD). Blots were washed three times in TBST for 30 min, incubated with HRP-conjugated secondary antibodies (1:2,000; Promega) for lh at room temperature, washed 3 times in TBST for 30 min and visualized using enhanced chemiluminescence (ECL).
(§2) p53/DNA damage responses:_For measurement of DNA damage response and p53 activation primary mouse keratinocytes cells were seeded at a cell density of 100,000 cells per well in a 6-well plate and allowed to grow for 24 h at 3% O2 till importantly 100% confluency. Cells were then treated with doxorubicin ([…]) as previously reported. For experiments using blebbistatin, cells were pretreated with blebbistatin (4 μM final concentration, Sigma B0560) 30 min prior to doxorubicin treatment. The Rock inhibitor Y27632 was used at 10 μM (Sigma Y0503), LatrunculinA was used at 2 μM (Sigma L5163), LeptomycinB was used at 20 nM (Sigma #9676) and the proteasome inhibitor MG132 was used at 3 μM (Sigma M7449).

Another data set relates to H2AX, Chk1 and Chk2. In words: DDR activation markers by Western blot (γH2AX, phosphorylated Chk1, Chk2). The class given is cell-based, mouse. Conditions: keratinocytes treated with inhibitor. As for the experimental part: as §1, §2
A further data set concerns nuclear p53 accumulation. In words: Nuclear p53 retention in DDR-induced Myh9-knockdown primary keratinocytes (nuclear/cytoplasmic fractions). The class given is cell-based, mouse. Conditions: LeptomycinB 20 nM; for nuclear p53 accumulation/retention after DNA damage: DDR-induced Myh9-knockdown (myosin-IIa-deficient) keratinocytes, blebbistatin 4 μM. As for the experimental part: as §1, §2

The next data set concerns HNSCC tumor suppressors. In words: Pooled in vivo shRNA screen with deep sequencing of tumors. On the set-up: species or system mouse. Conditions: deep sequencing of 87 lesions. An excerpt:
Constructs and RNAi: shRNA constructs for the shRNA pool were obtained from The Broad Institute's Mission TRC-1 mouse library. We tested and used especially the following shRNAs targeting Brcal and Myh9:
Tumor free survival: Control and TβRII-cKO animals were transduced at E9.5 with low-titer shRNA pool targeting orthologs of putative HNSCC genes, including Brcal or Myh9. Scrambled shRNA was used as control. Transductions and knockdowns were confirmed by real-time PCR of mRNAs isolated from newborn skin epidermis or by fluorescence microscopy of a lentiviral reporter fluor, H2B-RFP or H2B-GFP. Animals were assessed biweekly for signs of tumorigenesis, and were considered positive if lesions grew to be larger than 2 mm in diameter.
Deep Sequencing: Sample preparation, preamplification and sequence processing Epidermal and tumor cells were subjected to genomic DNA isolation with the DNeasy Blood & Tissue Kit (Qiagen), and each sample was analyzed for target transduction using real-time PCR. […] Illumina reads were trimmed to the 21 nt hairpin sequence using the FASTX-Toolkit and aligned to the TRC 2.x library with BWA (v 0.6.2)44 using a maximum edit distance of 3. Hits were ranked based on (a) numbers of shRNAs that targeted the gene and scored positively in the screen, with 2 out of 5 shRNAs being considered meaningful; and (b) numbers of tumors enriched for a specific shRNA.

In another data set the test system is myosin-IIa. In words: Myosin-IIa protein by immunoblot/immunohistochemistry in transduced mice. The class given is in vivo, mouse. As for the experimental part: Immunohistochemistry and histological analyses of mouse and human Tumors: Immunohistochemistry was performed as previously described. Briefly, 5-μm sections were cut, stained with H&E or processed for immunohistochemistry/immunofluorescence microscopy. Whole-mount staining of mammary glands was performed as described. For immunoperoxidase staining, paraffin-embedded sections were dehydrated and antigenic epitopes exposed using a 10-mM citrate buffer (pH 6.0) in a pressure cooker. Sections were incubated with the following primary antibodies at 4° C. overnight: rabbit anti-K14 (1:500; E. Fuchs) and rabbit anti-Myh9 (HPA001644, 1:500 Sigma). Primary antibody staining was visualized using peroxidase-conjugated anti-rabbit IgG followed by the DAB substrate kit for peroxidase visualization of secondary antibodies (Vector Laboratories). The following human tissue microarray comprising 48 healthy human skin samples, 30 hyperplastic skin lesions and 206 human skin SCCs as well as from 156 HNSCCs were obtained from US Biomax, Rockeville, Md.: SK244a, SK241, SK242, SK801, SK802, SK2081, SK801b and HN803a, HN811a, HN483.
Western Blot analysis:-Protein blotting was carried out using standard protocols. […]

The test system of the next data set is keratinocytes. In words: Scratch wound assay on keratinocytes infected in vitro. Type of data set: cell-based, mouse. Conditions: versus scrambled control.
The subject of data set [1] is hair follicle down-growth. In words: Hair follicle and eyelid phenotype of newborn mice transduced at E9.5. Type of data set: in vivo, mouse. As for the experimental part:
Materials and Methods. Mice and lentiviral transductions: TβRII foxed mice were crossed to K14-Cre and/or Rosa26YFPlox/stop/lox mice and or K14-CreER mice. Myh9 floxed mice were purchased form EMMA (EM:02572). CD1 mice were from Charles River laboratories. Large-scale production and concentration of lentivirus (6−10^9 cfu/ml) as well as ultrasound-guided lentiviral injection were performed as previously described. As controls for knock-down mice, littermates were infected with a non-targeting scrambled-shRNA, which activates the endogenous microRNA processing pathway but is not known to target any gene. Myh9fl/fl K14CreER mice were injected i.p. with 2 mg tamoxifen (20 mg/ml stock solution in corn oil) for 5 consecutive days at 6-8 weeks of age. DMBA/TPA treatment was performed as previously described. Briefly, 7-8 week old CD1 mice in second telogen were shaved and treated with 400 nmol DMBA in 100 ul aceton one week later. Thereafter, mice were treated with […] TPA in 100 ul aceton wice weekly for 20 weeks. All animals were maintained in an AAALAC-approved animal facility and procedures were performed with protocols approved by IACUC and in accordance with the National Institutes of Health.
Immunohistochemistry and histological analyses of mouse and human Tumors: Immunohistochemistry was performed as previously described. […]

The next data set has as its system nuclear p53. In words: Nuclear p53 immunofluorescence in skin 6 hours after γ-irradiation (5Gy). Type of data set: in vivo, mouse. The conditions noted are these: H2B-RFP labeled infected cells. The source says: Immunofluorescence staining The following primary antibodies were used for immunofluorescence: chicken anti-GFP (1:2000; Abcam); guinea-pig anti-K5 (1:500; E. Fuchs); rat anti-K14 (1:500; E. Fuchs); rabbit anti-K6 (1:500; E. Fuchs); rabbit anti-K18 (1:500; E. Fuchs); rat anti-CD104 β4-integrin (346-11A, 1:300; BD); rabbit anti loricin (1:500; E. Fuchs); rabbit anti-Caspase 3 (AF835, 1:1000; R&D), rabbit anti-K10 (PRB-159P, 1:1000; Covance); rabbit anti-Myh9 (HPA001644, 1:500 Sigma); rabbit anti-SMA (ab5694 1:300; Abcam) and rabit anti-p53 (NCL-p53-CMSp, 1:300; Leica). Secondary antibodies were conjugated to Alexa-488, 546, or 647 (1:1000, Life Technologies). Cells and tissues were processed as previously reported, and mounted in Vectashield HardSet mounting medium with DAPI (Life Technologies). […] For quantifications of nuclear p53, images were captured using an inverted Zeiss LSM 780 laser scanning microscope, powered by Zen software. Quantitative image analysis was performed using ImageJ software. To quantify p53 nuclear staining, the following formula was used: CTCF (corrected total cell fluorescence)=whole nucleus signal−(mean background signal (measured in the suprabasal layer)×area of the nucleus measured).

“Also recorded” adds a separate entry of the source. Where a SMILES comes first, the peptide text is derived from it. The star is where a group is joined. Cbz = O=C(OCc1ccccc1)*

Take `CC(C)C[C@@H](C=O)NC(=O)[C@H](CC(C)C)NC(=O)[C@H](CC(C)C)NC(=O)OCc1ccccc1` [MG132] (Cbz-Leu-Leu-Leu-aldehyde): in the data set on p53 activation (Myh9-knockdown and control keratinocytes, DNA damage, MG132 3 μM), the “p53 protein levels in presence of proteasome inhibitor” value was “rescues Myh9 phenotype; also recorded: comparably induced in both Myh9-knockdown and control keratinocytes”.

For `C[C@@H](N)[C@H]1CC[C@H](C(=O)Nc2ccncc2)CC1` [Y27632], the “DDR activation (γH2AX, phosphorylated Chk1 and Chk2)” value (“DDR activation” for short) with H2AX, Chk1 and Chk2 is recorded as “normal DDR activation”. In the case of `Cc1ccc2c(c1)C(=O)C1(O)CCN(c3ccccc3)C1=N2` (centres unmarked) [blebbistatin], the “DDR-induced p53 activation (p53 immunoblot)” value in the data set on p53 activation is listed as “phenocopied Myh9 loss of function effects on DDR-induced p53 activation”. Moreover, the “nuclear p53 accumulation/retention after DNA damage” value with nuclear p53 accumulation is listed as “Nuclear p53 is not retained”. In addition, in the data set on H2AX, Chk1 and Chk2, the “DDR activation” value was “normal DDR activation”. With `COc1cccc2c1C(=O)c1c(O)c3c(c(O)c1C2=O)C[C@@](O)(C(=O)CO)C[C@@H]3O[C@H]1C[C@H](N)[C@H](O)[C@H](C)O1` [doxorubicin], in the data set with p53 activation (control primary keratinocytes), the “p53 activation by DNA damage inducer” value is given as “led to p53 activation”.

Regarding `CCC(=C/[C@H](C)C/C=C/C(C)=C/[C@@H](C)C(=O)[C@@H](C)[C@H](O)[C@@H](C)C/C(C)=C/C(=O)O)/C=C/[C@@H]1OC(=O)C=C[C@@H]1C` [leptomycinB], the “nuclear p53 accumulation/retention after DNA damage” value is “restored to normal levels” in the data set with nuclear p53 accumulation and “rescues the ability of Myh9-deficient cells to retain p53 in the nucleus; also recorded: restores p53 accumulation after DNA damage” with nuclear p53 accumulation (listed as Leptomycin B). In the data set on nuclear p53 accumulation (DDR-induced myosin-IIa-deficient keratinocytes), the “transactivation of p53 target genes such as CDKN2 (p21)” value is on record as “restored to normal levels”.

In the case of “Brcal-shRNA#560: positive-control shRNA targeting Brca1, 5′-CCCATCATACTTTAATGTGTA-3′ (SEQ ID NO: 1)”, the “shRNA enrichment in lesions relative to initial pool and healthy skin” value with HNSCC tumor suppressors was “highly enriched”. On to “Myh9-shRNA #504: shRNA targeting Myh9, 5′-CGGTAAATTCATTCGTATCAA-3′ (SEQ ID NO: 3)”, for which the “myosin-IIa protein in skin/epidermis” value with myosin-IIa (mice transduced in utero, examined at birth) is reported as “loss of myosin-IIa”. For the same molecule, the “myosin-IIa immunolabeling in SCC tumor epithelium” value in the data set with myosin-IIa (tumors from TβRII-cKO mice) was “absent”. The “keratinocyte migration (wound closure)” value with keratinocytes is recorded as “enhances keratinocyte migration”. Moreover, the hair follicle down-growth result in data set [1] is reported as “impaired hair follicle down-growth”. As to “Myh9-shRNA #507: shRNA targeting Myh9, 5′-GCGATACTACTCAGGGCTTAT-3′ (SEQ ID NO: 6)”, the “nuclear p53 staining in skin” value in the data set with nuclear p53 is “do not show efficient nuclear p53 staining”. For the molecule latrunculin, the “DDR-induced p53 activation (p53 immunoblot)” value in the data set on p53 activation is reported as “did not display these effects”. For the same molecule, the “DDR activation” value in the data set with H2AX, Chk1 and Chk2 was “normal DDR activation”.
